How the values were obtained:
SD rats = details: 100 mg/kg by gavage every 8 h for 7 days, means ± SEM, n = 8
in vitro = details: human, Caco-2

Serum Cl (SD rats) [mmol/L]	Papp A→B at 120 min, 2 μmol/L (in vitro) [×10⁻⁶ cm/s]	SMILES
101.7 ± 1.3	–	CC(=O)Nc1ccc(NC(=O)c2ccc([N+](=O)[O-])o2)cc1 [1H, N-(4-Acetamidophenyl)-5-nitrofuran-2-carboxamide]
–	13.1 ± 0.65	COCCc1ccc(OCC(O)CNC(C)C)cc1 (centres unmarked) [metoprolol]

From PMC7838058 (Acta Pharmaceutica Sinica. B, 2020)
